# Measured values taken from patent publication US11180615B2, “Cationic polyphosphazene compound, polyphosphazenes-drug conjugate compound and method for preparing same” (CNPHARM CO., LTD., priority 2016, dated 2021).
# How the values were obtained:
# A-549 = assay: In vitro cytotoxicity (SRB method), A-549; format: cell-based; details: A-549, mean ± SD, n = 3-4
# Description: (§1) Since the anticancer agent paclitaxel is well known to be clinically very efficacious against many different cancers, breast (MCF-7), ovarian (SK-OV3), non-small cell lung (A549) and stomach (SNU638) cancer cell lines were selected to test their in vitro cytotoxicity according to the literature method (SRB method) (Rita Song, et. al, J. Control. Release 105 (2005) 142-150).
# MCF-7 = assay: In vitro cytotoxicity (SRB method), MCF-7; format: cell-based; details: MCF-7, mean ± SD, n = 3-4
# Description: as §1
# SK-Ov3 = assay: In vitro cytotoxicity (SRB method), SK-Ov3; format: cell-based; details: SK-Ov3, mean ± SD, n = 3-4
# Description: as §1
# SNU-638 = assay: In vitro cytotoxicity (SRB method), SNU-638; format: cell-based; details: SNU-638, mean ± SD, n = 3-4
# Description: as §1
# [1] = Critical micelle concentration by pyrene fluorescence method; format: physicochemical; details: aqueous pyrene solution 6×10^−7 M
# Method: As above-mentioned, the polyphosphazene-docetaxel conjugate of the present invention forms polymeric micelles in aqueous solution. In order for such polymer-drug conjugate to be clinically useful for IV injection, the solution stability of the micelles self-assembled from the polymer-drug conjugate is critical. Such a micelle stability is expressed as “critical micelle concentration (CMC),” which is measured by several methods, but the most widely used method is “pyrene fluorescence method” (K. Kalyanasundoram, et. al, J. Am. Chem. Soc. […], 99, 2039). According to the method the CMC value of the polyphosphazene-docetaxel conjugate of the present invention was measured as in the following:
# An aqueous pyrene solution (6×10^−7 M) was prepared and using this solution a series of sample solutions of the polyphosphazene-paclitaxel conjugate of Example 20 was prepared in the concentration range of 5.0-0.0005% (w/w). Fluorescence spectra were measured at 339 nm (Iex) and 390 nm (Iem) and then from the ratio of the fluorescence intensities of band I and band III, the value of CMC was determined as shown in FIG. 4.
# [2] = Biodegradability in buffer at 37° C. followed by GPC; format: physicochemical; details: buffer pH 5.4, 37° C.
# Method: Instrument: Yonglin GPC system
# Column: Waters Hydrogel HR column (1×guard, 1×linear, 2×HR2)
# Eluent: water/acetonitrile (8:2) (0.5% NaNO3)
# Two sample solutions were prepared by dissolving the polyphosphazene-paclitaxel conjugate of Example 20 (250 mg) in a buffer solution (5 ml) at pH=5.4 and in another buffer solution (5 ml) at pH=7.4. The two sample solutions were slowly shaken at 37° C. in a water bath and 500 μl of the sample solution was taken at predetermined schedule (0.5, 1, 2, 4, 6, 8, 16 day after incubation) and freeze-dried. The dried samples were dissolved in tetrahydrofuran involving 0.2% t-butyl ammonium bromide and subjected to gel permeation chromatography (GPC).
# [3] = system: non-small cell lung cancer cell line A549; details: versus Taxotere
# [4] = system: gastric cancer cell line MKN-28; assay: Nude mouse xenograft trial, MKN-28
# Method: Both tumor size and body weight of each were measured from the beginning of first injection to 40 days.
compound,measurement,setting,value
"CC(=O)O[C@H]1C(=O)[C@@]2(C)[C@H]([C@H](OC(=O)c3ccccc3)[C@]3(O)C[C@H](OC(=O)[C@H](O)[C@@H](NC(=O)c4ccccc4)c4ccccc4)C(C)=C1C3(C)C)[C@]1(OC(C)=O)CO[C@@H]1C[C@@H]2O [Paclitaxel, reference compound]",IC50,"A-549; Homo sapiens, A549",6.63 ± 2.84 nM
same,IC50,"MCF-7; Homo sapiens, MCF7",3.47 ± 0.62 nM
same,IC50,"SK-Ov3; Homo sapiens, SK-OV-3",15.3 ± 2.6 nM
same,IC50,SNU-638; Homo sapiens,10.9 ± 0.9 nM
[NP(MPEG550)1.50(LysEt)0.2(LysEt-2′-succinylpaclitaxel)0.3]n [Example 20],IC50,A-549,170 ± 48.3 nM
same,IC50,MCF-7,165 ± 86.5 nM
same,IC50,SK-Ov3,588 ± 47.8 nM
same,IC50,SNU-638,364 ± 202 nM
same,critical micelle concentration (CMC),[1],41 mg/L
same,degradation of polyphosphazene backbone in acidic media,[2],continuously degradable in acidic media
[NP(MPEG550)1.50(GlyLysEt-2′-succinylpaclitaxel)0.50]n [Example 21],IC50,A-549,1540 ± 41.8 nM
same,IC50,MCF-7,317 ± 141 nM
same,IC50,SK-Ov3,6960 ± 142 nM
same,IC50,SNU-638,5411 ± 46.6 nM
[NP(MPEG550)1.5(LysEt-2′-aconitic-docetaxel)0.5]n [Example 14],antitumor activity against A549 tumor,[3],even better antitumor activity than the reference Taxotere
same,antitumor activity against MKN-28 gastric tumor,"[4]; 10 and 20 mg/kg as docetaxel, day 1, 5, 9, 40 days, versus Taxotere 10 mg/kg",strong antitumor activity equivalent to Taxotere
same,systemic toxicity versus Taxotere,"[4]; judged from body weight, MKN-28 xenograft mice",lower systemic toxicity
